Experiments:
T. congolense [1] = test: NMRI mouse efficacy model, T. congolense; type: in vivo, Trypanosoma congolense; details: mice; 10 mg/kg SC once daily for 4 days
Protocol: (§1) 3. In vivo efficacy studies
(§2) The T. congolense (IL3000) and T. vivax (ILRAD V34) cell lines7, 8, both originating from Kenya, were used in the following in vivo mouse studies. For studies in cattle, either Trypanosoma congolense (savannah) KONT 2/133, 224) or T. vivax STIB 719 was used.
(§3) 3.1 Mouse efficacy studies for T. brucei brucei.
(§4) Mouse efficacy studies for T. brucei brucei were carried out as previously detailed.9 3.2 NMRI mouse efficacy studies for T. congolense and T. vivax.
(§5) Mouse models of infections were carried out using standardized protocols. Briefly, 1 mL samples of cryopreserved T. congolense, or T. vivax-infected blood harvested directly from an infected mouse, were diluted with Hanks Balanced Salt Solution plus 20 mM glucose (HBSS+G) to 5 x 10^4 trypomastigotes/mL (5 x 105 for T. vivax). Female mice (NMRI) were inoculated IP on day 0 with 0.2 mL/animal (equivalent to ~ 1 x 104 T. congolense or ~ 1 x 105 T. vivax per animal). The level of parasitaemia was inspected microscopically on day 3 using tail blood smears, counting 20 high powered fields (× 400 magnification). For untreated or treated animals whose tail smears exceeded 50 parasites/field, precise parasite levels were established using a Neubauer haemocytometer; mice with a parasite burden over 1 x 108 were promptly and humanely terminated (T. congolense only, from our experience the mice will not survive for a further 24 h). Alternatively, in the case of T. vivax-infected mice the immune system will bring the infection to a sub-lethal level (below limit of detection) […]
(§6) followed by cycles of high and low parasitaemia. Eventually mice infected with T. vivax succumb to the infection between 30 – 60 days post-infection.
(§7) Suppression of parasitaemia - mouse
(§8) On day 3 post-infection, animals were randomly allocated to groups, with 3 mice/group. Infected animals were dosed with one of the following: diaminazene diaceturate IP. – 40 mg/kg once only as a control (early-stage trypanocide used to clear the parasites in the systemic circulation and in tissues other than CNS), compound 1 (SC) at 3, 10, 30 and 50 mg free base/kg twice and once daily for 4 d or a single dose, or compound 2 (SC) at 3 and 10 mg free base /kg once daily for 4 d, once daily for 2 d or a single dose, one group of 3 mice acted as an untreated control group. The dose solutions were prepared daily, using 5% DMSO: 40% PEG400: 55% MilliQ H2O for test compounds and 10% DMSO: 90% peanut oil for standard drugs. Alternatively, compound 2 was delivered for 48 h via SC implanted ALZET osmotic pumps (6, 12, 25 and 50 mg free base/mL, vehicle: 50% DMSO […]
(§9) and 50% deionized water).
(§10) Response to treatment was determined by monitoring parasitaemia twice a week until day 21.
(§11) After day 21, the mice were checked once a week until 63 d post-treatment. Mice surviving to the end of the experiment, and with blood smears clear of parasites, were considered cured. […]
(§12) The parasites were obtained from a donor calf. This isolate is resistant to diminazene (20 mg/kg) and isometamidium (1 mg/kg) in cattle, and diminazene (7 mg/kg) and isometamidium (>1 mg/kg) in mice. Calves were parasitaemic by study day 6. Calves (n = 5) were treated with compound 1 (5 mg/kg, SC, twice 12 h apart) on study

T. vivax [2] = test: NMRI mouse efficacy model, T. vivax; type: in vivo, Trypanosoma vivax; details: mice; 10 mg/kg SC once daily for 4 days
Protocol: as §1, §2, §3, §4, §5, §6, §7, §8, §9, §10, §11, §12

[3] = Bovine liver microsome stability; type: in vitro ADME; details: intrinsic clearance
Protocol: 2.2 Microsomal stability studies […]
(b) Bovine liver microsome stability. Test compounds (0.5 µM) were incubated with 0.5 mg/mL bovine liver microsomes (Xenotech LLC TM) in 50 mM potassium phosphate buffer, pH7.4 and the reaction initiated upon addition of excess NADPH (8 mg/mL in 50 mM potassium phosphate buffer, pH7.4).
Aliquots (50 µL) of the incubation mixture were taken at time zero, 3, 6, 9, 15 and 30 min then mixed with acetonitrile (100 µL) to stop the reaction. An internal standard was added to all samples, prior to centrifugation (10 min, 1,665 g, RT) to sediment precipitated protein. Reaction plates were then sealed prior to UPLCMSMS analysis using a Quattro Premier XE (Waters corporation, USA).
XLfit (IDBS, UK) was used to calculate the exponential decay and consequently the rate constant (k) from the ratio of peak area of test compound to internal standard at each timepoint. The rate of intrinsic clearance (CLi) of each test compound was then calculated using the following […]
CLi(mL/min/g liver) = k x V x microsomal protein yield
Where V (mL/mg protein) is the incubation volume/ mg protein added and microsomal protein yield is taken as 52.5 mg protein/ g of liver. Verapamil (0.5 µM) was used as a positive control to confirm acceptable assay performance. […]

[4] = Aqueous kinetic solubility by laser nephelometry; type: physicochemical; details: MilliQ water with 2.5% DMSO, read-out: Sol (kinetic solubility); for solubility kinetic: range 250-12 µM
Protocol: 2. Drug metabolism and pharmacokinetics
The aqueous solubility of test compounds was measured using laser nephelometry. Compounds were subject to serial dilution from 10 mM to 0.5 mM in DMSO. Aliquot were then mixed with MilliQ water to obtain an aqueous dilution plate with a final concentration range of 250 – 12 µM. The final DMSO concentration in these plates was 2.5%. Triplicate aliquots were transferred to a flat-bottomed polystyrene plate which was immediately read on a NEPHELOstar nephelometer (BMG Lab Technologies). The laser scatter caused by insoluble particulates (relative nephelometry units, RNU) was plotted against compound concentration using a segmental regression fit, with the point of inflection being quoted as the compound’s aqueous solubility (µM).
Solubility of compound 1 was measured by a different method. Here, compound 1 was dissolved in DMSO to give a 10 mM solution and solubility test samples prepared by adding a volume (5 µL) of this stock solution to phosphate buffered saline, pH 7.4 (195 µL, Sigma-Aldrich). This

L6 cells = test: Cytotoxicity assay, rat skeletal myoblasts (L6); type: cell-based
Protocol: 1.4 Cytotoxicity assays – Rat skeletal myoblasts (L6)
The cytotoxicity of test compounds was evaluated using a rat skeletal myoblast (L6) cell line, as previously described3, but with minor modifications. Cells were grown in RPMI media supplemented with 10% (v/v) fetal calf serum. L6 cells at a seeding density of 2 x 10^4 cells/mL were incubated in microtiter plates overnight at 37 °C and 5 % CO2 until adherent. The following day, test compounds were added to the plates (3-fold serial dilutions), prior to incubation for 69 h. Following incubation, 10 µL of Resazurin (12.5 mg in 100 mL phosphate buffered saline, Aldrich) was added to each well and the plates were incubated for a further 3 h. The plates were read using a SpectraMax (Gemini XS) fluorescence reader at an excitation wavelength of 536 nm and an emission wavelength of 588 nm. EC50 values were determined using SOFTmax Pro 5.2 analysis software. All experiments were conducted as technical replicates, with at least three biological replicates. […]

T. congolense [5] = test: In vitro drug sensitivity assay, T. congolense (IL3000); type: cell-based; details: Trypanosoma congolense; IL3000 strain
Protocol: 1.2 In vitro drug sensitivity assays - Trypanosoma congolense
EC50 values for test compounds against T. congolense (IL3000 strain) were conducted as previously described3 with minor modifications.4 Briefly, trypanosome cell densities were determined using a CASY cell counter (Schärfe) and diluted to a seeding density of 2 x 105 trypanosomes/mL. BSF trypanosomes were grown in HMI-9 (IMDM) media supplemented with 20% (v/v) bovine serum.1 Test compounds were resuspended to a final concentration of 10 mg/mL in DMSO. Assays plates were incubated at 34 °C with 5 % CO2, for a total of 69 h, prior to addition of 10 µL of Resazurin (12.5 mg in 100 mL phosphate buffered saline, Aldrich) into each well, followed by a further 3 h incubation. Absorbance was read using a SpectraMax (Gemini XS) fluorescence reader at an excitation wavelength of 536 nm and an emission wavelength of 588 nm. EC50 values were determined using SOFTmax Pro 5.2 analysis software. All experiments were conducted with technical duplicates, and at least three biological replicates. […]

T. vivax [6] = test: Ex vivo drug sensitivity assay, T. vivax (STIB 719/ILRAD 560); type: cell-based; details: Trypanosoma vivax
Protocol: Test compounds were resuspended to a final concentration of 10 mg/mL in DMSO. […]
1.3 Ex vivo drug sensitivity assays - Trypanosoma vivax
Since T. vivax cannot be cultured axenically, BSF trypanosomes were harvested from an infected mouse with high parasitemia via cardiac puncture and used directly in ex vivo assays. EC50 values were determined against T, vivax (STIB 719/ ILRAD 560) as previously described3, with minor modifications. Briefly, cell densities were determined using a Neubauer chamber and then diluted to a seeding density of 4 x 105 trypanosomes / mL. BSF trypanosomes were cultured in HMI-9 (IMDM) media containing 20% (v/v) bovine serum. Assay plates were incubated at 37 °C with 5 % CO2, for a total of 45 h prior to addition 10 µL of Resazurin (12.5 mg in 100 mL phosphate buffered saline, Aldrich) into each well, followed by a further 3 h incubation. Absorbance was read using a SpectraMax (Gemini XS) fluorescence reader at an excitation wavelength of 536 nm and an emission wavelength of 588 nm. EC50 values were determined using SOFTmax Pro 5.2 analysis […]
software. […]

Structure (SMILES)	Efficacy at 10 mg/kg SC for 4 days, T. congo (T. congolense [1])	Efficacy at 10 mg/kg SC for 4 days, T. vivax (T. vivax [2])	Bovine Microsome Cli (BLM: bovine microsomal clearance) [3] [mL/min/g]	solubility kinetic [4] [µM]	EC50 (L6 cells) [nM]	EC50 (T. congolense [5]) [nM]	EC50 (T. vivax [6]) [nM]	solubility kinetic at 24 h ([4]; pH 7.4, range 250-12 µM) [µM]
CC(C)CS(=O)(=O)N[C@H]1CC[C@H](Nc2nc(N)c(C(=O)c3c(F)cc(CN4CCOCC4)cc3F)s2)CC1.Cl [Compound 4, N-((trans)-4-((4-Amino-5-(2,6-difluoro-4-((4-morpholinomethyl)benzoyl)thiazol-2-yl)amino)cyclohexyl))-2-methylpropane-1-sulfonamide Hydrochloride]	No cure (0/3)	No cure (0/3)	1					
CC(C)CS(=O)(=O)N[C@H]1CC[C@H](Nc2nc(N)c(C(=O)c3c(Cl)cc(CN(C)C)cc3Cl)s2)CC1.Cl [Compound 11, N-((trans)-4-((4-Amino-5-(4-(dimethylaminomethyl)-2,6-dichlorobenzoyl)thiazol-2-yl)amino)cyclohexyl)-2-methylpropane-1-sulfonamide Hydrochloride]			7.1	> 250	4300	0.59	0.05	
CC(C)CS(=O)(=O)N[C@H]1CC[C@H](Nc2nc(N)c(C(=O)c3c(F)cc(CN4CCCC4)cc3F)s2)CC1.Cl [Compound 5, N-((trans)-4-((-4-Amino-5-(2,6-difluoro-4-(pyrrolidin-1-ylmethyl)benzoyl)thiazol-2-yl)amino)cyclohexyl)-2-methyl-propane-1-sulfonamide Hydrochloride]	Partial cure (1/3)	Full cure (3/3)	<0.5					220
CC(C)CS(=O)(=O)N[C@H]1CC[C@H](Nc2nc(N)c(C(=O)c3c(F)cc(CN)cc3F)s2)CC1.Cl [Compound 9, N-((trans)-4-((4-Amino-5-(4-(aminomethyl)-2,6-difluorobenzoyl)thiazol-2-yl)amino)cyclohexyl)-2-methylpropane-1-sulfonamide Hydrochloride]			<0.5	> 250	5900	8.3	0.5	
CC(C)CS(=O)(=O)N[C@H]1CC[C@H](Nc2nc(N)c(C(=O)c3c(F)cc(CCN(C)C)cc3F)s2)CC1.Cl [Compound 7, N-(((trans)-4-((4-Amino-5-(4-(2-dimethylamino)ethyl)-2,6-difluorobenzoyl)thiazol-2-yl)amino)cyclohexyl)-2-methylpropane-1-sulfonamide Hydrochloride]			0.8	> 250	18000	16	1	
CC(C)CS(=O)(=O)N[C@H]1CC[C@H](Nc2nc(N)c(C(=O)c3c(F)cc(CN4CCN(C)CC4)cc3F)s2)CC1.Cl [Compound 3, N-((trans)-4-((4-Amino-5-(2,6-difluoro-4-((4-methylpiperazin-1-yl)methyl)benzoyl)thiazol-2-yl)amino)cyclohexyl)-2-methylpropane-1-sulfonamide Hydrochloride]	Partial cure (1/3)	No cure (0/3)	<0.5	> 250				
CC(C)CS(=O)(=O)N[C@H]1CC[C@H](Nc2nc(N)c(C(=O)c3c(F)cc(CN4CCC4)cc3F)s2)CC1.Cl [Compound 6, N-(((trans)-4-((4-Amino-5-(4-azetidin-1-ylmethyl)-2,6-difluorobenzoyl)thiazol-2-yl)amino)cyclohexyl)-2-methylpropane-1-sulfonamide Hydrochloride]			1.3	> 250	5300	2.5	6.9	

Reference: article PMC9014415, “Repositioning of a Diaminothiazole Series Confirmed to Target the Cyclin-Dependent Kinase CRK12 for Use in the Treatment of African Animal Trypanosomiasis” (Journal of Medicinal Chemistry, 2022)
